Reference: patent US20220047606A1, “TREATMENT METHOD WITH IAP INHIBITOR” (Ascentage Pharma (Suzhou) Co., Ltd., priority 2019, published 2022)

Tests used:
[1] = Phase I dose-escalation study (NCT03585322) in chronic hepatitis B patients: other findings (Fibro test score, ALT normalization); type: in vivo, human; settings: for Fibro Test Score Changes from baseline to end of follow-up, Mean(SD): 12 weeks follow up
Method: (§1) Methods: This study (NCT number: NCT03585322) is a multi-center, single-agent, open-label, Phase I dose-escalation study. Chronic hepatitis B (CHB) patients without receiving anti-HBV treatment within 6 months before screening were recruited and administrated with Compound (I) weekly via intravenous infusion (IV) in 4 escalated dosage (7 mg, 12 mg, 20 mg and 30 mg) for 4 weeks followed with 12 weeks follow up. The primary objective of this study is to assess the safety, with secondary outcome measures focused on pharmacokinetics (PK) and Pharmacodynamics (PD) of Compound (I) as monotherapy in CHB patients.

hepatitis B virus (HBV) = assay: Phase I dose-escalation study (NCT03585322) in chronic hepatitis B patients: pharmacodynamics (HBsAg, HBV DNA); type: in vivo, human
Method: as §1

[2] = Phase I dose-escalation study (NCT03585322) in chronic hepatitis B patients: safety; type: in vivo, human
Method: as §1

chronic HBV infections = assay: Preclinical studies: clearance of chronic HBV infection in different models
[3] = system: IAPs (inhibitor of apoptosis proteins); assay: Preclinical studies: IAP inhibition in vivo and in vitro
[4] = Phase I dose-escalation study (NCT03585322) in chronic hepatitis B patients: pharmacokinetics; type: in vivo, human
Method: as §1

[5] = 7 mg weekly IV for 4 weeks, n = 3 CHB patients
[6] = 12 mg weekly IV for 4 weeks, n = 9 CHB patients
[7] = 20 mg weekly IV for 4 weeks, N = 6 CHB patients
[8] = 30 mg weekly IV for 4 weeks, N = 6 CHB patients

CN[C@@H](C)C(=O)N[C@H]1CN(S(=O)(=O)c2cccc(S(=O)(=O)N3CC[C@H]4CC[C@@H](C(=O)NC(c5ccccc5)c5ccccc5)N4C(=O)[C@@H](NC(=O)[C@H](C)NC)C3)c2)CC[C@H]2CC[C@@H](C(=O)NC(c3ccccc3)c3ccccc3)N2C1=O [Compound (I), (5S ,5′S ,8S ,8′S,10aR,10a′R)-3,3′-(1,3-phenylenedisulfonyl)bis(N-benzhydryl-5-((S)-2-(methylamino)propanamido)-6-oxodecahydropyrrolo[1,2-a][1,5]diazocine-8-carboxamide)]
Fibro Test Score Changes from baseline to end of follow-up, Mean(SD) ([1]; 7 mg weekly IV for 4 weeks, N = 3): 0.27 kPa | Fibro Test Score Changes from baseline to end of follow-up, Mean(SD) ([1]; 12 mg weekly IV for 4 weeks, N = 3): −1.80 kPa | Fibro Test Score Changes from baseline to end of follow-up, Mean(SD) ([1]; 20 mg weekly IV for 4 weeks, N = 6): −0.33 kPa | Fibro Test Score Changes from baseline to end of follow-up, Mean(SD) ([1]; 30 mg weekly IV for 4 weeks, N = 2): −4.05 kPa | patients with ALT normalization ([1]; 10/22 patients): 46% | patients with reduction of HBsAg at ≥0.5 log (hepatitis B virus (HBV); 5/26 patients): 19% | patients with reduction of HBsAg at ≥0.2 log (hepatitis B virus (HBV); 12/26 patients): 46% | patients with decline of HBV DNA (hepatitis B virus (HBV); 23 of 26 patients): 89% | patients with prolonged HBsAg reduction (hepatitis B virus (HBV); during post-treatment follow-up, 11/23 patients): 48% | patients with reduction of HBsAg (hepatitis B virus (HBV); week 4, 17 of 26 patients): 65% | Any Drug-Related TEAE (%) [2, 5]: (66.7%) | Any Drug-Related TEAE N [2, 5]: 2 | SAE (%) [2, 5]: (0%) | SAE N [2, 5]: 0 | Any Drug-Related TEAE (%) [2, 6]: (33.3%) | Any Drug-Related TEAE N [2, 6]: 3 | SAE (%) [2, 6]: (0%) | SAE N [2, 6]: 0 | Any Drug-Related TEAE (%) [2, 7]: (100.0%) | Any Drug-Related TEAE N [2, 7]: 6 | SAE (%) [2, 7]: (0%) | SAE N [2, 7]: 0 | patients with grade 2 facial nerve disorder ([2]; 30 mg cohort): 1 patient | time to recovery from grade 2 facial nerve disorder ([2]; 30 mg cohort, 1 patient): ≤ 4 weeks | Any Drug-Related TEAE (%) [2, 8]: (83.3%) | Any Drug-Related TEAE N [2, 8]: 5 | SAE (%) [2, 8]: (16.7%) | SAE N [2, 8]: 1 | drug-related adverse event: ALT increase, incidence ([2]; all cohorts 7-30 mg weekly IV): 26% | drug-related adverse event: AST increase, incidence ([2]; all cohorts 7-30 mg weekly IV): 22% | drug-related adverse event: infusion site pain, incidence ([2]; all cohorts 7-30 mg weekly IV): 15% | drug-related adverse event: infusion site reaction, incidence ([2]; all cohorts 7-30 mg weekly IV): 15% | drug-related adverse event: total bile acids increase, incidence ([2]; all cohorts 7-30 mg weekly IV): 15% | patients with grade 3 ALT or AST elevation ([2]; all cohorts 7-30 mg weekly IV): Four | safety and tolerability, overall ([2]; ascending doses from 7 mg to 30 mg): safe and well tolerated | grade 3 ALT or AST elevation, extent ([2]; the four patients with grade 3 elevation): 5-15 × ULN | clearance of chronic HBV infections (chronic HBV infections): can clear chronic HBV infections in different models | inhibition of IAPs [3]: inhibits IAPs in vivo and in vitro | PK analysis: plasma exposure versus dose ([4]; 7, 12, 20, 30 mg weekly IV): dose proportional increase in plasma exposure | PK analysis: accumulation after multiple dosing ([4]; weekly IV for 4 weeks): no accumulation after multiple dosing
